Assay results: ChEMBL document CHEMBL4190383, “Hit discovery of Mycobacterium tuberculosis inosine 5'-monophosphate dehydrogenase, GuaB2, inhibitors” (Bioorg Med Chem Lett, 2018)
pIC50: −log10 of the molar value. ≈ marks a conversion by molar mass, not a printed value. Calls of active or inactive are those of the source. The rule behind the calls is not given here.

Legend:
[1] = system: Mycobacterium tuberculosis; test: Antimicrobial activity against Mycobacterium tuberculosis H37Rv in presence of 0.15 ng/ml anhydrotetracycline-induced guaB2 gene silencing by alamar blue assay; format: functional
[2] = system: Acinetobacter baumannii; test: Growth inhibition of Acinetobacter baumannii at 32 ug/ml; format: functional; conditions: read-out: GI
[3] = system: Mycobacterium tuberculosis; test: Antimicrobial activity against Mycobacterium tuberculosis SRMV2.6 H37Rv by alamar blue assay; format: functional
[4] = target: Inosine-5'-monophosphate dehydrogenase 2 (Homo sapiens) (UniProt P12268); test: Inhibition of human IMPDH2 at 10 uM
Sequence of Inosine-5'-monophosphate dehydrogenase 2 (Homo sapiens) (P12268 2-514 limits assumed): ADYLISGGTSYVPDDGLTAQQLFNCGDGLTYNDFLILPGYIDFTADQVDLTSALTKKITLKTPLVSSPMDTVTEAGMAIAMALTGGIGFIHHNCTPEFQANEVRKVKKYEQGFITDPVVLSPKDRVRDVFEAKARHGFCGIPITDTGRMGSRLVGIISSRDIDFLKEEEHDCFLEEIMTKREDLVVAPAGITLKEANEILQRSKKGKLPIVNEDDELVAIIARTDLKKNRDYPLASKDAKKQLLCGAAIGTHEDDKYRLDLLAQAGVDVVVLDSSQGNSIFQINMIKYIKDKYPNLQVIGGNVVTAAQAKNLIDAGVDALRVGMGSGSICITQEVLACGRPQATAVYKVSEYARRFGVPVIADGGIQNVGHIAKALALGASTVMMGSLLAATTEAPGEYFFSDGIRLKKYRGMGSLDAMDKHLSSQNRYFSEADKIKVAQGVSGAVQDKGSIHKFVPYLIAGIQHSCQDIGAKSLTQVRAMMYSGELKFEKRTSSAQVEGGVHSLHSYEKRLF

[5] = system: Mycobacterium tuberculosis; test: Inhibition of Mycobacterium tuberculosis GuaB2 at 50 uM
[6] = Inhibition of Mycobacterium tuberculosis GuaB2
[7] = system: Candida albicans; test: Growth inhibition of Candida albicans at 32 ug/ml; format: functional; conditions: read-out: GI
[8] = system: Escherichia coli; test: Growth inhibition of Escherichia coli at 32 ug/ml; format: functional; conditions: read-out: GI
[9] = system: Mycobacterium tuberculosis; test: Antimicrobial activity against Mycobacterium tuberculosis H37Rv by alamar blue assay; format: functional
[10] = system: Pseudomonas aeruginosa; test: Growth inhibition of Pseudomonas aeruginosa at 32 ug/ml; format: functional; conditions: read-out: GI
[11] = system: Mycobacterium tuberculosis; test: Antimicrobial activity against Mycobacterium tuberculosis H37Rv in presence of 0.08 to 5 ng/ml anhydrotetracycline-induced guaB2 gene silencing by alamar blue assay; format: functional, organism-based
[12] = system: Klebsiella pneumoniae; test: Growth inhibition of Klebsiella pneumoniae at 32 ug/ml; format: functional; conditions: read-out: GI
[13] = Octanol/water partition coefficient , logP of the compound; format: physicochemical
[14] = system: Cryptococcus neoformans; test: Growth inhibition of Cryptococcus neoformans var. grubii at 32 ug/ml; format: functional; conditions: read-out: GI
[15] = system: Mycobacterium tuberculosis; test: Antimicrobial activity against Mycobacterium tuberculosis H37Rv in presence of 0.31 ng/ml anhydrotetracycline-induced guaB2 gene silencing by alamar blue assay; format: functional
[16] = system: Staphylococcus aureus; test: Growth inhibition of methicillin-resistant Staphylococcus aureus at 32 ug/ml; format: functional; conditions: read-out: GI

O=C(Cc1ccc(F)c2ccccc12)Nc1ccc2c(c1)COC2=O gave an MIC [1] of 12.5 µM, an inhibition of growth at 32 µg/mL [2] of -2.02% and an MIC90 [3] of 100 µM (≈ 33.5 µg/mL). For the same compound, the inhibition [4] was 0.1%, the inhibition [5] was 99.9% and the pIC50 [6] was 5.52. It also gave an inhibition of growth at 32 µg/mL [7] of 5.47%, an inhibition of growth at 32 µg/mL [8] of -4.49% and an MIC90 [9] of 100 µM (≈ 33.5 µg/mL). For the same compound, the inhibition of growth at 32 µg/mL [10] was -3.45%, the Activity [11] was “Active” and the inhibition of growth at 32 µg/mL [12] was 13.4%. For the same compound, the logP [13] was 2.5 to 3.5, the inhibition of growth at 32 µg/mL [14] was -49.8% and the MIC [15] was 12.5 µM. The inhibition of growth at 32 µg/mL [16] was 2.37%.
